Results reported in patent US10464957B2, “Oxidized lipids and methods of use thereof” (Vascular Biogenics Ltd., priority 2014, dated 2019).

Assays:
[1] = system: Pam3CSK4 (TLR2)-stimulated human monocytes (primary CD14+); experiment: IL-12/23p40 ELISA, Pam3CSK4 (TLR2)-stimulated monocytes; format: cell-based; details: 1 hour pretreatment, 24 hour 300 ng/ml Pam3CSK4, ELISA of supernatant
Protocol: Human monocytes were obtained as described in Example 9 and FIG. 9A-9B. Human monocytes were seeded (10^6/ml) and pretreated for 1 hour with VB-201, VB-701 or VB-702, followed by 24 hour activation with 100 ng/ml LPS from Escherichia coli strain 055:B5 (Sigma, Israel) (FIG. 9A) or 300 ng/ml Pam3CSK4 (InvivoGen, San Diego, Calif., USA) (FIG. 9B) to induce cytokine production. IL-12/23p40 concentration in the supernatant was then measured by ELISA (R&D systems, Cat. No. DY1240). Cells activated with solvent (0.5% ethanol in PBS) were used as a control.

[2] = system: MCP-1-induced signaling in human monocytes (THP-1 cell line); experiment: MCP-1-induced signaling, western blot; format: cell-based; details: 20 min pretreatment, 50 ng/ml MCP1, THP-1
Protocol: THP-1 cells (10^6/ml) were pretreated for 20 min with VB-201 or VB-701 at the doses indicated in FIG. 4, or with solvent, followed by activation with 50 ng/ml MCP1, or were untreated (“Unt”). Cells were washed and resuspended in lysis buffer containing 1:100 dithiothreitol (DTT), phosphatase and protease inhibitors (Thermo Scientific). Samples were loaded onto a precast Criterion TGX gel (Bio-Rad, Hemel Hempstead, UK) and transferred onto nitrocellulose membrane. Blots were blocked with 5% milk or BSA in Tris buffered saline and Tween 20 (TBST) for 1 h, followed by incubation with primary and secondary antibodies. Membranes were developed using an ECL kit (Thermo Scientific). The following antibodies were used for immunoblotting:
Primary antibodies: p-ERK1/2 (Cat. No. M8159; 1:10000) was purchased from Sigma (Israel). p-AKT (Cat. No. 4060; 1:1000) was purchased from Cell Signaling Technology (Danvers, Mass.). αTubulin served as a loading control and was purchased from Sigma (Israel).
Secondary antibodies: HRP donkey anti-rabbit (1:5000) and HRP goat anti-mouse (1:3000) were from Jackson ImmunoResearch (West Grove, Pa., USA). HRP donkey anti-goat (1:5000) was from Santa Cruz Biotechnology.

[3] = system: human monocytes (primary CD14+); experiment: Chemokine-induced cell migration trans-well assay; format: cell-based; details: RANTES 100 ng/ml and MCP-1 50 ng/ml, 2-4 hours, FACS count
Protocol: Venous blood samples were obtained from healthy male donors in compliance with the Institutional Review Board at the Sheba Medical Center, Ramat Gan, Israel. PBMCs were isolated on Ficoll-Paque PLUS (GE Healthcare, Uppsala, Sweden) using 50 ml Leucosep tubes (Greiner Bio-One, Frickenhausen, Germany). Cells were washed in PBS (Kibbutz Beit Haemek, Israel) and incubated at 4° C. for 15 minutes in a buffer containing PBS and 0.5% bovine serum albumin (BSA) with human CD14 microbeads (Miltenyi Biotec, Bergisch Gladbach, Germany).
Cells (10^6/ml) were pretreated for 20 min with VB-201 or VB-701 at the doses indicated in FIG. 5, or with solvent (Sol).
To test for chemokine-induced cell migration, RANTES (100 ng/ml; Cat. No. 300-06, PeproTech, Israel) and MCP-1 (50 ng/ml; Cat. No. 300-04, PeproTech, Israel) were dissolved in RPMI-1640 medium supplemented with 0.5% fetal bovine serum (FBS) and placed at the lower chamber of QCM 24-well, […], migration assay plates (Corning-Costar, Corning, N.Y.). Cells (3×10^5) were seeded in the upper chamber and incubated for 2-4 hours. Subsequently, the number of cells which migrated to the lower compartment was determined by fluorescence-activated cell sorting (FACS).

[4] = system: kidney of nephrectomized rats; experiment: Real-time PCR of pro-fibrotic markers in kidney of nephrectomized rats; format: in vivo, Sprague Dawley (SD) Rats
Protocol: Kidney RNA was extracted with an RNeasy Fibrous Tissue Mini kit (Qiagen) and after DNAse I treatment, single-stranded cDNA was synthesized from 2 μg total RNA using the qScript cDNA Synthesis Kit (Quanta Biosciences) and diluted for real-time PCR. The expression of collagen 4α, fibronectin and TGFβ was quantified using the 7300 Real Time PCR System (Applied Biosystems). The assay was performed according to manufacturer instructions using the primers (Assay ID) represented at the table below supplied by Applied Biosystems. Data were normalized to the reference gene TATA box Binding Protein (TBP) and presented as relative mRNA levels compared with Sham PBS 0.5% Eth treatment (Table 1).

[5] = system: livers taken from NASH-induced mice; experiment: Q-PCR of inflammation mediators in livers of NASH-induced mice; format: in vivo; details: VB-703 4 mg/kg, Q-PCR normalized to GAPDH
Protocol: Neonatal male mice exposed to low-dose streptozotocin (STZ) develop liver steatosis with diabetes. Continuous high fat diet (HFD) increases lobular inflammation with foam cell-like macrophages, showing nonalcoholic steatohepatitis (NASH) pathology. NASH was induced in 40 male mice by a single subcutaneous injection of 200 μg per mouse of STZ two days after birth and feeding HFD [57 kcal % fat]) from four weeks of age. Vehicle, VB-703 (4 mg/kg), or telmisartan (10 mg/kg) as positive control, were administered once daily for three weeks, starting from six weeks of age. Mice were sacrificed at nine weeks of age.
RNA was prepared from livers from normal mice and NASH-induced mice treated with vehicle, VB-703, or telmisartan, using RNeasy mini kit (Qiagen). For cDNA preparation, 2 μg of RNA was combined with qScript reaction mix and qScript Reverse Transcriptase (Quanta BioSciences) for 5 min at 22° C. and then for 30 min at 42° C. Reaction was ended by incubation for an additional 5 min at 85° C. All real time PCR reactions were performed using the 7300 Real Time PCR System (Applied Biosystems). Q-PCR with mouse ready set of probe with primer was used for IL-1β, IL-12/23p40 and MCP-1 (Applied Biosystems). GAPDH was used to normalize RNA levels.

[6] = compared to Nx PBS 0.5% Eth treatment, VB-703 4 mg/kg, telmisartan 10 mg/kg
[7] = normalized to TBP, relative to Sham PBS 0.5% Eth, mean±SEM

Structure (SMILES)	IL-12p40 levels, Pam3CSK4 (TLR2)-stimulated [1]	formation of p-AKT and p-ERK induced by MCP1 [2]	chemokine-induced migration of human monocytes [3]	reduction of Collagen IV expression [4, 6] [%]	reduction of TGF-β expression [4, 6] [%]	reduction of fibronectin expression [4, 6] [%]	Collagen IV mRNA expression (relative mRNA level) [4, 7]	TGF-β mRNA expression (relative mRNA level) [4, 7]	fibronectin mRNA expression (relative mRNA level) [4, 7]	expression of IL-10 in livers [5]	expression of IL-12/23p40 in livers [5]	expression of the chemokine MCP-1 in livers [5]
CCCCCCCCCCCCCCCCOCC(COP(=O)([O-])OCC[N+](C)(C)C)OCCCCC(=O)O (stereo not drawn) [VB-201, 1-hexadecyl-2-(4′-carboxy)butyl-glycero-3-phosphocholine, reference compound]	inhibit	inhibit	inhibit	–	–	–	–	–	–	–	–	–
CCCCCCCCCCC(CCCCCCCC)COC[C@H](COP(=O)([O-])OCC[n+]1ccccc1)OCCCCC(=O)O (stereo partly drawn) [VB-703, (R)-1-(2′-octyl)dodecyl-2-(4′-carboxy)butyl-sn-glycero-3-phosphoric acid pyridiniumethyl ester]	–	–	–	51	42	47	3.7±0.52	4.8±0.32	6.7±0.98	significantly inhibited	significantly inhibited	significantly inhibited
